Target: 5-hydroxytryptamine receptor 6 (Homo sapiens, UniProt P50406)
Experiment: Antagonist activity at 5-HT6 receptor (unknown origin)

Chain of 5-hydroxytryptamine receptor 6 (P50406 whole entry): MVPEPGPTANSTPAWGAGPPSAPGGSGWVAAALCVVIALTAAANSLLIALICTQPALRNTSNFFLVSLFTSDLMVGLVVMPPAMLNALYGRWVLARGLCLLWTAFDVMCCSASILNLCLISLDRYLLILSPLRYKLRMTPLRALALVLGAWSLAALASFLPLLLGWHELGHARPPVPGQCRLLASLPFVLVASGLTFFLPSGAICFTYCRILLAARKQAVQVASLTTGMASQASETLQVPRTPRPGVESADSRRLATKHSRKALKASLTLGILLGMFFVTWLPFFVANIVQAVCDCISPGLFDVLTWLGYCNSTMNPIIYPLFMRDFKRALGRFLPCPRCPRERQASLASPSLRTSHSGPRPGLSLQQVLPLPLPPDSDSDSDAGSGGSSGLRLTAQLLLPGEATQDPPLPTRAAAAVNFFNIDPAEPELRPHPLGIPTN

Ki	Compound
15 nM	CN1CCc2ccc(N3C(=O)CSC34C(=O)Nc3ccccc34)cc2CC1 (single isomer, unassigned)
26 nM	CN1CCc2ccc(N3C(=O)CSC34C(=O)Nc3ccccc34)cc2CC1 (racemic)

From ChEMBL document CHEMBL3352589, “The use of spirocyclic scaffolds in drug discovery” (Bioorg Med Chem Lett, 2014)
